{"source": "patent US7972849B2", "about": "“Primate pluripotent stem cells produced by somatic cell nuclear transfer” (Oregon Health & Science University, priority 2007, dated 2011)", "format_in_all_cases": "cell-based, rhesus monkey", "key": {"monkey oocytes [1]": {"tested_on": "monkey oocytes", "assay": "Inhibition of 1st polar body extrusion in monkey oocytes during the MI-MII transition", "details": "for # Matured after exposure / # Matured during exposure: exposure time 4 hours, MI oocytes, N=5"}, "monkey oocytes [2]": {"tested_on": "monkey oocytes", "assay": "In vitro development following fertilization by ICSI of oocytes exposed to MG-132", "details": "4 hours, MI oocytes, after ICSI", "procedure": "Fertilization by ICSI and culture conditions for TSCs was performed as described previously (Wolf, Thormahlen et al. 2004). After ICSI, injected oocytes were placed in 4-well dishes (Nalge Nunc International Co., Naperville, Ill.) containing protein-free HECM-9 medium and cultured at 37° C. in 6% CO2, 5% O2 and 89% N2. Cultures were maintained under paraffin oil. SCNT-derived TSCs at the 8-cell stage were transferred to fresh plates of HECM-9 medium supplemented with 5% fetal bovine serum (FBS; HyClone, Logan, Utah) and cultured to the blastocyst stage with the medium changed every other day.\nFailure to induce nuclear remodeling could reflect either inherently low MPF levels in MII oocytes recovered from ovarian stimulation protocols or loss of MPF resulting from premature oocyte activation during manipulation. In order to evaluate the first possibility, nuclear donor cells were fused with intact (non-enucleated) MII oocytes (n=13). […] To test the hypothesis that failed nuclear remodeling reflects premature activation caused by the SCNT procedures and decline in MPF activity mediated by the proteasome system, proteasome catalytic activity was inhibited with MG-132 (Josefsberg et al., Biol Reprod 62(5): 1270-7, 2000; Zhou et al., Science 302(5648): 117 2003)."}, "monkey SCNT embryos [3]": {"tested_on": "monkey SCNT embryos", "assay": "Nuclear remodeling (lamin A/C immunostaining, chromatin condensation) in reconstructed SCNT embryos", "details": "for occurrence of remodeling events in the donor nucleus: when used in the SCNT protocols disclosed", "procedure": "Monkey oocytes and SCNT-derived totipotent cells were fixed in 4% paraformaldehyde for 20 min. After permeabilization with 0.2% Triton X-100 and 0.1% Tween-20, non-specific reactions were blocked with 10% normal goat serum (Jackson ImmunoResearch Laboratories, Inc., West Grove, Pa.). SCNT-derived totipotent cells were then incubated for 40 min in mouse monoclonal antibody against Oct-4 (POU5F1) or lamin A/C (1:200; Santa Cruz Biotechnology, Inc., Santa Cruz, Calif.). After extensive washing, SCNT-derived totipotent cells were exposed to affinity-purified goat anti-mouse, secondary antibody conjugated with indocarbocyanine (Cy3, 1:200; Jackson ImmunoResearch). SCNT-derived totipotent cells were then co-stained with 2 μg/ml of 4′, 6-diamidino-2-phenylindole (DAPI) for 10 min, whole-mounted onto slides and examined under epifluorescence microscopy.\nMature MII oocytes were exposed to 5 μM MG-132 immediately after retrieval and maintained in this inhibitor throughout enucleation and somatic donor cell fusion procedures.\nMonkey oocytes are particularly vulnerable to premature activation and MPF degradation during in vitro manipulations, a likely characteristic of primates but with potential relevance to SCNT success in other mammals."}, "monkey SCNT embryos [4]": {"tested_on": "monkey SCNT embryos", "assay": "Blastocyst development of monkey SCNT embryos produced by electrofusion", "description": "Alternatively, donor cell nuclear transfer was accomplished by electrofusion. Electrofusion procedures were similar to the conventional protocols described previously (Mitalipov, Yeoman et al. 2002; Mitalipov, Kuo et al. 2003) with the exception that calcium acetates were removed from the fusion buffer. A disaggregated donor cell was aspirated into a micropipette and transferred into the perivitelline space of the cytoplast. Cell fusion was induced by two 50 μsec DC pulses of 2.7 kV/cm (Electro Square Porator T-820, BTX, Inc., San Diego, Calif.) in 0.25 M D-sorbitol buffer containing 0.5 mM Hepes and 1 mg/ml fatty acid-free BSA. Successful fusion was confirmed visually 20-30 min after electroporation by the disappearance of the donor cell in the perivitelline space.\nReconstructed embryos were activated 2 hours after fusion by exposure by exposure to […] ionomycin (CalBiochem, San Diego, Calif.) for 5 min in TALP/HEPES medium supplemented with 1 mg/ml BSA and then transferred for 5 min in TALP/HEPES medium supplemented with 30 mg/ml BSA and 2 mM 6-dimethylaminopurine followed by a 5 h incubation in HECM-9 medium containing 2 mM 6-dimethylaminopurine at 37° C. in 5% CO2, 5% O2 and 90% N2. Activated SCNT embryos were placed in HECM-9 medium and cultured as described above."}}, "note": "Where a SMILES comes first, the peptide text is derived from it. The star is where a group is joined. Cbz = O=C(OCc1ccccc1)*", "data": [{"smiles": "CC(C)C[C@@H](C=O)NC(=O)[C@H](CC(C)C)NC(=O)[C@H](CC(C)C)NC(=O)OCc1ccccc1", "note": "[MG-132] (Cbz-Leu-Leu-Leu-aldehyde)", "values": [{"measurement": "# Matured after exposure", "setting": "monkey oocytes [1]; MG-132 0.5 μM", "result": 1}, {"measurement": "# Matured during exposure", "setting": "monkey oocytes [1]; MG-132 0.5 μM", "result": 3}, {"measurement": "# Matured after exposure", "setting": "monkey oocytes [1]; MG-132 2 μM", "result": 3}, {"measurement": "# Matured during exposure", "setting": "monkey oocytes [1]; MG-132 2 μM", "result": 2}, {"measurement": "# Matured after exposure", "setting": "monkey oocytes [1]; MG-132 5 μM", "result": 4}, {"measurement": "# Matured during exposure", "setting": "monkey oocytes [1]; MG-132 5 μM", "result": 0}, {"measurement": "inhibition of first polar body extrusion during the MI to MII transition", "setting": "monkey oocytes [1]; MG-132 at 5 μM, pilot study", "result": "efficient in inhibiting first polar body extrusion"}, {"measurement": "# 8-cell", "setting": "monkey oocytes [2]; MG-132 0.5 μM", "result": 3}, {"measurement": "# Blastocyst", "setting": "monkey oocytes [2]; MG-132 0.5 μM", "result": 3}, {"measurement": "# Morula", "setting": "monkey oocytes [2]; MG-132 0.5 μM", "result": 3}, {"measurement": "# 8-cell", "setting": "monkey oocytes [2]; MG-132 2 μM", "result": 2}, {"measurement": "# Blastocyst", "setting": "monkey oocytes [2]; MG-132 2 μM", "result": 0}, {"measurement": "# Morula", "setting": "monkey oocytes [2]; MG-132 2 μM", "result": 0}, {"measurement": "# 8-cell", "setting": "monkey oocytes [2]; MG-132 5 μM", "result": 1}, {"measurement": "# Blastocyst", "setting": "monkey oocytes [2]; MG-132 5 μM", "result": 0}, {"measurement": "# Morula", "setting": "monkey oocytes [2]; MG-132 5 μM", "result": 0}, {"measurement": "nuclear remodeling of reconstructed embryos, by 4 hours after fusion", "setting": "monkey SCNT embryos [3]; 5 μM MG-132 from retrieval throughout enucleation and fusion, by 4 hours", "result": "clear evidence of nuclear remodeling"}, {"measurement": "nuclear remodeling of reconstructed embryos, 1 hour after fusion", "setting": "monkey SCNT embryos [3]; 5 μM MG-132 from retrieval throughout enucleation and fusion, sampled 1 hour after fusion", "result": "slight chromatin condensation and moderate lamin A/C staining"}, {"measurement": "MPF activity in monkey cytoplasts", "setting": "monkey SCNT embryos [3]; MG-132 exposure at the higher concentration (5 μM)", "result": "preserved MPF activity"}, {"measurement": "occurrence of remodeling events in the donor nucleus", "setting": "monkey SCNT embryos [3]", "result": "increased the occurrence of remodeling events in the donor nucleus"}]}, {"smiles": "Cn1c(=O)c2c(ncn2C)n(C)c1=O", "note": "[caffeine]", "values": [{"measurement": "time at which SCNT embryos reached the blastocyst stage", "setting": "monkey SCNT embryos [4]; 2.5 mM caffeine for 2 hours immediately after electrofusion", "result": "≤ 8", "unit": "days"}, {"measurement": "# Blastocysts forming by day 12", "setting": "monkey SCNT embryos [4]; SCNT plus caffeine, 2.5 mM for 2 hours after electrofusion", "result": 0}, {"measurement": "# Blastocysts forming by day 8", "setting": "monkey SCNT embryos [4]; SCNT plus caffeine, 2.5 mM for 2 hours after electrofusion, count", "result": 4}, {"measurement": "Blastocysts forming by day 8 (%)", "setting": "monkey SCNT embryos [4]; SCNT plus caffeine, 2.5 mM for 2 hours after electrofusion, percentage", "result": 31, "unit": "%"}, {"measurement": "# cleaved", "setting": "monkey SCNT embryos [4]; SCNT plus caffeine, 2.5 mM for 2 hours immediately after electrofusion, N=19", "result": 13}, {"measurement": "occurrence of remodeling events in the donor nucleus", "setting": "monkey SCNT embryos [3]", "result": "increased the occurrence of remodeling events in the donor nucleus"}]}]}
